Test results reported in BindingDB's records for patent US20240148821 (Chugai Seiyaku Kabushiki Kaisha, 2024).
Numbered stars: 1 amine (or outer) side, 2 acyl side, 3 side chain; on linkers, the order of the positions; unused ones are H or OH. Bridge positions count the residues as written; N and C are the ends. Square brackets hold non-standard residues; d marks the D form. Peptide text beside a SMILES is read from it. * marks the point of attachment. ξ: configuration not given here. hPhe(3-Cl-4-CF3) = N[C@@H](CCc1ccc(C(F)(F)F)c(Cl)c1)C(=O)O; X101 = CN([C@@H](CCc1cscn1)C(=O)[*:2])[*:1]; NMedβ3hAla = C[C@H](CC(=O)[*:2])N(C)[*:1]; NMeGly(cPent) = CN[C@H](C(=O)O)C1CCCC1; NMehCha = CN[C@@H](CCC1CCCCC1)C(=O)O; NMeCha = CN[C@@H](CC1CCCCC1)C(=O)O; ξPro(4,4-F2) = O=C(O)C1CC(F)(F)CN1; NMeChg = CN[C@H](C(=O)O)C1CCCCC1; N(CH2CH2)2CF2 = FC1(F)CCN(*)CC1; NMeD = CN[C@@H](CC(=O)O)C(=O)O; NMeL = CN[C@@H](CC(C)C)C(=O)O; Cba = N[C@@H](CC1CCC1)C(=O)O; NMeV = CN[C@H](C(=O)O)C(C)C; Ac7c = NC1(C(=O)O)CCCCCC1; NMeA = CN[C@@H](C)C(=O)O; Piperidide = C1CCN(*)CC1; Pyrrolidide = C1CCN(*)C1; Ac5c = NC1(C(=O)O)CCCC1; ξAze = O=C(O)C1CCN1; ξP = O=C(O)C1CCCN1; Sar = CNCC(=O)O

Target: GTPase KRas (G12D) and Son of Sevenless Homolog 1 (SOS) (Homo sapiens, UniProt P01116, G12D)
Assay: AlphaScreen Assay
Description: Protein-protein interaction inhibition (PPI) between Kras and SOS1 was measured by energy transfer from nickel-conjugated donor beads to streptavidin-conjugated acceptor beads using biotin-tagged human Kras expressed in E. coli and loaded with GDP after purification and His-tagged human SOS1 enzyme. This measurement utilizes the phenomenon in which donor beads are irradiated with light at 680 nm, such that energy is transferred to acceptor beads through singlet oxygen and light at 520-620 nm is detected from the acceptor beads.

Chain of GTPase KRas (G12D) and Son of Sevenless Homolog 1 (SOS) (P01116 whole entry G12D): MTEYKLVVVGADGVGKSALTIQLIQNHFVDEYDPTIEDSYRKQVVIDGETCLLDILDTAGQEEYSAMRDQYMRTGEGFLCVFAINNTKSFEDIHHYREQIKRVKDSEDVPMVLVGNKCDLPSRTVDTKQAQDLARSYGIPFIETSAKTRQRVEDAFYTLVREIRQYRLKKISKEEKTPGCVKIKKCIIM
Chain of GTPase KRas (G12D) and Son of Sevenless Homolog 1 (SOS) (Q07889 whole entry, further chain): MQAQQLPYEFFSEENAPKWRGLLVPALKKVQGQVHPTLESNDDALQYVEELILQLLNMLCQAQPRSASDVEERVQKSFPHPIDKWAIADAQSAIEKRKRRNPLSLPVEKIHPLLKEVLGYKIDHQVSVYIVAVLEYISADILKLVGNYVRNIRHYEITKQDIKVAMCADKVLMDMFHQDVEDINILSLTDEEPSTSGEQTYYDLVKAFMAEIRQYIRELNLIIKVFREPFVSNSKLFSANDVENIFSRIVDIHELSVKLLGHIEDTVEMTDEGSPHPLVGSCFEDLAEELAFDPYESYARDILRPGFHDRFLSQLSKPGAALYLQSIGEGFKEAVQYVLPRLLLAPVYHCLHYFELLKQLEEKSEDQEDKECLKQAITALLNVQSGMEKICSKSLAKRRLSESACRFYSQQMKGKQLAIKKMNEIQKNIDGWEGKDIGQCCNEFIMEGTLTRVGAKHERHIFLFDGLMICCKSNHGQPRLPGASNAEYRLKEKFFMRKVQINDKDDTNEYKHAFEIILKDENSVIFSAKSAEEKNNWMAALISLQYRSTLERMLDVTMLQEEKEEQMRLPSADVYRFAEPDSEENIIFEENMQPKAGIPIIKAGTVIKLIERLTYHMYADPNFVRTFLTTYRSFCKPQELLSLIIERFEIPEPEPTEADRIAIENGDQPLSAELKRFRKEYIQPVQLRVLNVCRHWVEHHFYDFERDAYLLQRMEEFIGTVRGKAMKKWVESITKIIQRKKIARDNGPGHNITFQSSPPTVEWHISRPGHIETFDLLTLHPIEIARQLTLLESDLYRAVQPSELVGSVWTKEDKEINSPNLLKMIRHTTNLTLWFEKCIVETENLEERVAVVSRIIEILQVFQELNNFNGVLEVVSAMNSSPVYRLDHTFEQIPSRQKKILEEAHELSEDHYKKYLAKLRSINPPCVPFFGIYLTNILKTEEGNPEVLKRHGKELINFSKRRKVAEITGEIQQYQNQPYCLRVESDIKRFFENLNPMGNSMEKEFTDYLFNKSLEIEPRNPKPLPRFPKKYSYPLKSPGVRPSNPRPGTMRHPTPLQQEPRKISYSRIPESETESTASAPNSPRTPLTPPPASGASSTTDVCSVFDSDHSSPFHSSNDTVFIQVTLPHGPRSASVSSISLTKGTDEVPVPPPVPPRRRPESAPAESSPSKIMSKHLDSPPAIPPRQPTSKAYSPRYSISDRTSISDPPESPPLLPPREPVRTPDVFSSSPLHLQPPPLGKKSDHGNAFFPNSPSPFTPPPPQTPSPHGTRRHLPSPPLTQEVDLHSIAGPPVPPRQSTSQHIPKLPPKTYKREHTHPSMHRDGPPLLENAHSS

SMILES | IC50 [nM]
CC(C)C[C@H]1C(=O)N[C@@H](C2CC2)C(=O)N(C)CC(=O)N(C)CC(=O)N(C)[C@@H](CCC2CCCCC2)C(=O)N(C)CC(=O)N[C@@H](CCc2ccc(C(F)(F)F)c(Cl)c2)C(=O)N2CCCC2C(=O)NC2(CCCC2)C(=O)N(C)[C@@H](C(C)C)C(=O)N[C@H](C)CC(=O)N1C (some centres undefined) [US20240148821, Compound 101] | 160
CC[C@H](C)[C@@H]1NC(=O)[C@H](CC(C)C)N(C)C(=O)C[C@@H](C)NC(=O)[C@H](CC(C)C)N(C)C(=O)C(C)(C)NC(=O)[C@H](CC(C)C)N(C)C(=O)[C@H](CCc2cc(F)c(C(F)(F)F)c(F)c2)NC(=O)CN(C)C(=O)[C@H](C(=O)CC2CCCCC2)N(C)C(=O)CN(C)C(=O)CN(C)C1=O [US20240148821, Compound 119] | 39
CC[C@H](C)[C@@H]1NC(=O)[C@H](CCC2CCC2)N(C)C(=O)C[C@@H](C)NC(=O)[C@H](C(C)C)N(C)C(=O)C2(CCCC2)NC(=O)C2CCCN2C(=O)[C@H](CCc2ccc(C(F)(F)F)c(Cl)c2)NC(=O)CN(C)C(=O)[C@H](CC2CCCCC2)N(C)C(=O)CN(C)C(=O)CN(C)C1=O (some centres undefined) [US20240148821, Compound 230] | 39
CC[C@H](C)[C@@H]1NC(=O)[C@H](CC(C)C)N(C)C(=O)C[C@@H](C(=O)N2CCCCC2)N(C)C(=O)[C@H](C2CCCCC2)N(C)C(=O)C2(CCCC2)NC(=O)[C@H](CCc2cscn2)N(C)C(=O)[C@H](CCc2ccc(C(F)(F)F)c(Cl)c2)NC(=O)CN(C)C(=O)[C@H](CC2CCCCC2)N(C)C(=O)CN(C)C(=O)CN(C)C1=O [US20240148821, Compound 500] ([NMeL]I[Sar][Sar][NMeCha][Sar][hPhe(3-Cl-4-CF3)][X101][Ac5c][NMeChg][NMeD]-Piperidide; lactam N-11) | 4.8

Results, then the compound that gave them:

IC50 [nM] | SMILES
4.3 | CC[C@H](C)[C@@H]1NC(=O)[C@H](CC(C)C)N(C)C(=O)C[C@@H](C(=O)N2CCCC2)N(C)C(=O)[C@H](C2CCCC2)N(C)C(=O)C2(CCCC2)NC(=O)[C@H](CC(=O)N2CCC(F)(F)CC2)N(C)C(=O)[C@H](CCc2ccc(C(F)(F)F)c(Cl)c2)NC(=O)CN(C)C(=O)[C@H](CCC2CCCCC2)N(C)C(=O)C2CCN2C(=O)[C@H](C)N(C)C1=O (some centres undefined) [US20240148821, Compound 26] ([NMeL]I[NMeA][ξAze][NMehCha][Sar][hPhe(3-Cl-4-CF3)][NMeD](N(CH2CH2)2CF2)[Ac5c][NMeGly(cPent)][NMeD]-Pyrrolidide; lactam N-11)
4 | CC[C@H](C)[C@@H]1NC(=O)[C@H](CC(C)C)N(C)C(=O)C[C@@H](C)N(C)C(=O)[C@H](C2CCCC2)N(C)C(=O)C2(CCCC2)NC(=O)C2CC(F)(F)CN2C(=O)[C@H](CCc2ccc(C(F)(F)F)c(Cl)c2)NC(=O)CN(C)C(=O)[C@H](CCC2CCCCC2)N(C)C(=O)CN(C)C(=O)CN(C)C1=O (some centres undefined) [US20240148821, Compound 107] (cyclo([Ac5c][NMeGly(cPent)][NMedβ3hAla][NMeL]I[Sar][Sar][NMehCha][Sar][hPhe(3-Cl-4-CF3)][ξPro(4,4-F2)]))
100 | CCCC[C@@H]1NC(=O)[C@H](Cc2cccc(I)c2)NC(=O)CN(CC)C(=O)[C@H](Cc2ccc(Cl)cc2)N(CC)C(=O)CN(CC)C(=O)CN(CC)C(=O)[C@H]([C@@H](C)CC)NC(=O)[C@H](CC(C)C)N(CC)C(=O)CC(C(=O)N2CCCCC2)N(CC)C(=O)[C@H](CC(C)C)NC(=O)[C@H](Cc2ccccc2OC(F)(F)F)N(CC)C1=O (some centres undefined) [US20240148821, Compound 111]
9.5 | C#CCC[C@H]1C(=O)N[C@@H]([C@@H](C)CC)C(=O)N(C)CC(=O)N(C)CC(=O)N(C)[C@@H](CCc2ccc(I)cc2)C(=O)N(C)CC(=O)N[C@@H](CCc2ccc(C(F)(F)F)c(Cl)c2)C(=O)N2CCCC2C(=O)NC2(CCCC2)C(=O)N(C)[C@@H](C2CCCCC2)C(=O)N[C@H](C)CC(=O)N1C (some centres undefined) [US20240148821, Compound 300]
10 | CC(C)C[C@H]1C(=O)N[C@@H](CC2CCC2)C(=O)N(C)CC(=O)N(C)CC(=O)N(C)[C@@H](CC2CCCCC2)C(=O)N(C)CC(=O)N[C@@H](CCc2ccc(C(F)(F)F)c(Cl)c2)C(=O)N2CCCC2C(=O)NC2(CCCCCC2)C(=O)N(C)[C@@H](C(C)C)C(=O)N(C)[C@H](C(=O)N2CCCCC2)CC(=O)N1C (some centres undefined) [US20240148821, Compound 451] ([NMeL][Cba][Sar][Sar][NMeCha][Sar][hPhe(3-Cl-4-CF3)][ξP][Ac7c][NMeV][NMeD]-Piperidide; lactam N-11)
